# Source: patent publication US20160310417A1, “Formulations and Methods For Targeted Ocular Delivery of Therapeutic Agents” (Emory University, priority 2013, published 2016)
# Tests used:
# IOP in the rabbit eye = assay: Intraocular pressure (IOP) pharmacodynamics in normotensive rabbit, tonometer; format: in vivo, New Zealand White rabbits; conditions: for IOP decrease, treated eye: within 1 hour
# [1] = Intrastromal delivery of bevacizumab from coated microneedles into rabbit cornea in vivo (ELISA)
# [2] = tested on: corneal neovascularization; assay: Suture-induced corneal neovascularization model, neovascularization area by image analysis; format: in vivo, New Zealand rabbits; conditions: for average neovascularization area lower compared to no treatment group: MN-1bolus: intrastromal 1.1 μg, single microneedle; for reduction of neovascularization compared to untreated eye: SC-high: subconjunctival injection 2500 μg bolus on day 4
# Procedure: All animal studies adhered to the ARVO statement for the Use of Animals in Ophthalmic and Vision Research and were approved by the Georgia Institute of Technology Institutional Animal Care and Use Committee (IACUC). Male and female New Zealand rabbits (2.2-2.5 kg) were anesthetized with ketamine (17 mg/kg), xylazine (8.5 mg/kg) and acepromazine (0.5 mg/kg) subcutaneously. Following topical administration of 0.5% proparacaine hydrochloride to minimize discomfort, a single 7.0-gauge silk suture (Ethicon TG140, Blue Ash, Ohio) was placed at midstromal depth 1 mm away from the limbus of the rabbit cornea to generate corneal neovascularization associated with minor traumatic injury. This silk suture was left in the rabbit cornea for the duration of the experiment to induce neovascularization. For each animal, a suture was placed in one eye and the companion eye was left untreated.
# During the experiment, the rabbit eye was imaged using a digital camera (Cannon Rebel Tli, Melvile, N.Y.) with macroscopic lens (Cannon MP-E 65 mm) at 3× magnification every two days after placement of the suture. The area of neovascularization was quantified using Adobe Photoshop (Adobe, Jan Jose, Calif.).
# Prior to all treatment procedures except for topical delivery, rabbits were anesthetized with ketamine (6 mg/kg), xylazine (4 mg/kg) and acepromazine (0.25 mg/kg) subcutaneously. A reduced dose of anesthesic compared to the suture insertion procedure was used to reduce possible stress to the animals. A single drop of topical proparacaine ophthalmic solution was given as anesthesia. The duration of each study was 18 days and, after the suture insertion at the beginning of the experiment, 4 days were allowed for neovascularization to develop. All the treatments were done on day 4 except as indicated below.
# The high-dose group (SC-high) received 2500 μg of bevacuzumab (in 100 μL, i.e., Avastin). The low-dose group (SC-low) received 4.4 μg of bevacuzumab (Avastin was diluted with HBSS to 100 μL).
# rabbit cornea = assay: Safety of intrastromal delivery: corneal surface inspection and histology; format: in vivo
# Text: To identify possible microanatomical changes after intrastromal delivery using microneedles, we conducted a histological safety study using four study groups: (i) The untreated group received no suture and no other treatments. (ii) The suture-only group received a suture at day 0, but no other treatments. (iii). The suture with non-coated microneedles group received a suture on day 0 and four non-coated microneedles inserted at the site of the suture on day 4. […] Animals were sacrificed on days 1, 6, 10 and/or 18 for histological analysis. Suture placement and microneedle application were carried out as described above. High magnification images were taken every day in all study groups to assess possible gross corneal damage. Corneal tissues were fixed in 10% formalin and embedded in paraffin. Hematoxylin-eosin (HE) or periodic acid-Schiff (PAS) staining was performed.
# The rabbit corneas with and without microneedle treatment and with and without suture placement were evaluated to assess the safety of microneedle insertion by both magnified inspection of the corneal surface in vivo and histological examination of tissue sections obtained at various times after microneedle treatment Immediately after insertion and removal of the microneedle, a small puncture in the corneal epithelium was evident with a size on the order of 200 μm (data not shown). […]
compound,measurement,setting,value
brimonidine tartrate,"supraciliary dose for similar pharmacodynamic response, fold less than topical delivery (AUCPD)","IOP in the rabbit eye; brimonidine, topical 75 μg vs supraciliary",115 fold
same,time for IOP to return to normal,IOP in the rabbit eye; single topical drop 75 μg,≤ 6 h
same,"peak IOP reduction, treated eye","IOP in the rabbit eye; single topical drop 75 μg, at 2 hours",approximately 4 mmHg
same,IOP changes in treated and contralateral eyes,IOP in the rabbit eye; supraciliary 0.015 μg in 10 μL,no significant IOP changes
same,persistence of IOP drop,IOP in the rabbit eye; supraciliary 0.75 μg in 10 μL,about 5 hours
same,"peak IOP drop, treated eye","IOP in the rabbit eye; supraciliary 0.75 μg in 10 μL, at 2 hours",~3 mmHg
same,persistence of IOP decrease,IOP in the rabbit eye; supraciliary 1.5 μg in 10 μL,about 9 hours
same,"IOP decrease, treated eye",IOP in the rabbit eye; supraciliary 1.5 μg in 10 μL,~3.3 mmHg
Bevacizumab,coated bevacizumab delivered into the cornea,"[1]; coated microneedles, 10 dip coats, inserted 60 sec, rabbit cornea in vivo",52%
same,amount of bevacizumab delivered per microneedle,[1]; microneedles coated with 20 dips,1.14 ± 0.11 µg
same,average neovascularization area lower compared to no treatment group,"[2]; day 4, day 10",34%
same,average neovascularization area lower compared to no treatment group,"[2]; day 4, day 18",10%
same,reduction of neovascularization area,"[2]; MN-1bolusx3: intrastromal 1.1 μg on days 4, 6 and 8 (total 3.3 μg), day 10",50%
same,reduction of neovascularization area compared to untreated eyes,"[2]; MN-4bolus: intrastromal 4.4 μg, four coated microneedles, day 4, day 10",65%
same,reduction of neovascularization compared to untreated eyes,"[2]; MN-hollow: intrastromal 50 μg (2 μL of 25 μg/μL) by hollow microneedle, day 4, day 10",74%
same,reduction of neovascularization compared to untreated eye,[2]; day 10,62%
same,reduction of neovascularization compared to untreated eye,[2]; day 18,29%
same,effect on neovascularization compared to untreated eyes,[2]; SC-low: subconjunctival injection 4.4 μg bolus on day 4,no significant effect
same,reduction of neovascularization compared to untreated eyes,"[2]; TOP: topical eye drops 3 per day from day 4, total 52,500 μg, day 18",6%
same,"corneal histology, sutured eyes with versus without microneedle treatment",rabbit cornea; 1.1 μg bevacizumab by microneedle four days after suture,no notable differences
same,corneal surface after treatment with bevacizumab-coated microneedles,"rabbit cornea; magnified inspection in vivo, daily over 18 days",only a microscopic puncture in the corneal epithelium that disappeared within one day and was not associated with any complications
CC(C)OC(=O)CCC/C=C\C[C@@H]1[C@@H](CC[C@@H](O)CCc2ccccc2)[C@H](O)C[C@@H]1O [latanoprost],change in IOP,"IOP in the rabbit eye; standard human dose of 2.5 μg, rabbit model",no change in IOP was observed
FC(F)OC(Cl)C(F)(F)F (stereo not shown) [isoflurane],time for effects on IOP to reverse,IOP in the rabbit eye; after inhalation stopped,15 to 30 min
same,IOP elevation,IOP in the rabbit eye; during 15 min inhalation of escalating dose,~5 mmHg
"CS(=O)(=O)NC(=O)CCC/C=C\C[C@H]1C(=O)C[C@@H](O)[C@@H]1/C=C/[C@@H](O)COc1ccccc1 [sulprostone, Sulprostone]","duration of ocular hypotension, treated eye",IOP in the rabbit eye; single topical eye drop 2.5 μg,about 8 hours
same,"maximum IOP decrease, treated eye","IOP in the rabbit eye; single topical eye drop 2.5 μg, at approximately 2 hours",~3.4 mmHg
same,ratio of topical to supraciliary dose for similar pharmacodynamic response (AUCPD comparison),"IOP in the rabbit eye; sulprostone, topical 2.5 μg vs supraciliary, Equation (2)",101
same,"persistence of ocular hypotension, treated eye",IOP in the rabbit eye; supraciliary 0.005 μg in 10 μL,approximately 6 hours
same,"peak IOP drop, treated eye","IOP in the rabbit eye; supraciliary 0.005 μg in 10 μL, at 1 hour",~2.8 mmHg
same,persistence of IOP decrease,IOP in the rabbit eye; supraciliary 0.025 μg in 10 μL,at least 9 hours
same,"IOP decrease, treated eye",IOP in the rabbit eye; supraciliary 0.025 μg in 10 μL,~3.1 mmHg
